Earlier results as cited in paper PMC9899610 (Cancer Science, 2022).
Like-named read-outs stand apart in the source and are kept apart here.

Tested on: patients with advanced or metastatic cholangiocarcinoma; urothelial carcinoma
Details: cited from earlier work
[1] = patients with advanced or metastatic cholangiocarcinoma

| Structure (SMILES) | Hyperphosphatemia, patients (patients with urothelial carcinoma) [%] | Patients who discontinued treatment because of retinal detachment (phase II study) [%] | Retinal AEs requiring dose interruption or treatment discontinuation | Hyperphosphatemia, patients [1] [%] |
| --- | --- | --- | --- | --- |
| COc1cc(OC)cc(N(CCNC(C)C)c2ccc3ncc(-c4cnn(C)c4)nc3c2)c1 [erdafitinib] | 77 | 13 |  |  |
| CCN1CCN(c2ccc(Nc3cc(N(C)C(=O)Nc4c(Cl)c(OC)cc(OC)c4Cl)ncn3)cc2)CC1 [infigratinib] |  |  | two discontinuations | 77 |
| CCN1C(=O)N(c2c(F)c(OC)cc(OC)c2F)Cc2cnc3[nH]c(CN4CCOCC4)cc3c21 [pemigatinib] |  |  | one dose interruption | 60 |
